From paper PMC7351026, “Serum Half-Lives for Short- and Long-Chain Perfluoroalkyl Acids after Ceasing Exposure from Drinking Water Contaminated by Firefighting Foam” (Environmental Health Perspectives, 2020)

Tests used:
[1] = PFAS levels in serum samples of airport employees (LC/MS/MS)
Summary of the method: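 LC/MS/MS quantification (BEH C18, 5 mM ammonium acetate water:methanol to methanol gradient) after protein precipitation of 25 μL serum with isotopically labeled internal standards, FBS-matrix calibration. Samples stored at −80°C, collected at monthly intervals from September 2018 and run together in a single batch.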

[2] = PFAS levels in urine samples of airport employees, specific-gravity adjusted (LC/MS/MS); type: in vivo, human
Summary of the method: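 50 μL urine mixed with methanol and acetonitrile containing isotope-labelled internal standards, shaken 30 min, centrifuged, then analysed by LC/MS/MS in negative ion mode. Concentrations specific-gravity adjusted; urine/serum ratios from paired samples of 17 employees, averaged over repeated samplings per employee.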

Serum/water ratio = type: in vivo, human; conditions: median serum level of first samples (26 employees) divided by airport drinking-water level
Protocol: The ratio of serum and water concentration for each PFAS (serum/water ratio) was calculated based on median serum level in the first serum sample obtained from all 26 airport employees divided by the drinking-water concentration. This ratio is an indicator of PFAS accumulation in body.

[3] = 1st sampling (September 2018), count 17
[4] = 2nd sampling (October 2018), count 17
[5] = 3rd sampling (November, 2018), count 17
[6] = 4th sampling (December 2018), count 16
[7] = 5th sampling (January 2019), count 16
[8] = first serum samples, all 26 airport employees
[9] = median of first serum samples, all 26 airport employees
[10] = second to fifth samplings, 17 airport employees
[11] = 3rd sampling (November, 2018), count 16
[12] = 4th sampling (December 2018), count 14
[13] = 5th sampling (January 2019), count 12

Q: Which “Serum PFAS level, 25 percentile” value [1, 3] does the source give for `O=S(=O)(O)C(F)(F)C(F)(F)C(F)(F)C(F)(F)C(F)(F)F` [PFPeS, perfluoropentane sulfonic acid] here?
A: 5.8

Q: What about the “Serum PFAS level, 75 percentile” value [1, 3] of the same compound?
A: 13

Q: And the “Serum PFAS level, Max” value [1, 3]?
A: 17

Q: What about the “Serum PFAS level, Median” value [1, 3] of the same compound?
A: 7.6

Q: What about the “Serum PFAS level, Min” value [1, 3] of the same compound?
A: 3.6

Q: What about the “Serum PFAS level, 25 percentile” value [1, 4] of the same compound?
A: 4.9

Q: And the “Serum PFAS level, 75 percentile” value [1, 4]?
A: 11

Q: And the “Serum PFAS level, Max” value [1, 4]?
A: 14

Q: What about the “Serum PFAS level, Median” value [1, 4] of the same compound?
A: 6.8

Q: And the “Serum PFAS level, Min” value [1, 4]?
A: 2.3

Q: And the “Serum PFAS level, 25 percentile” value [1, 5]?
A: 4.4

Q: What about the “Serum PFAS level, 75 percentile” value [1, 5] of the same compound?
A: 11

Q: What about the “Serum PFAS level, Max” value [1, 5] of the same compound?
A: 14

Q: And the “Serum PFAS level, Median” value [1, 5]?
A: 6.3

Q: What about the “Serum PFAS level, Min” value [1, 5] of the same compound?
A: 2.1

Q: And the “Serum PFAS level, 25 percentile” value [1, 6]?
A: 4.0

Q: And the “Serum PFAS level, 75 percentile” value [1, 6]?
A: 11

Q: And the “Serum PFAS level, Max” value [1, 6]?
A: 14

Q: And the “Serum PFAS level, Median” value [1, 6]?
A: 6.5

Q: And the “Serum PFAS level, Min” value [1, 6]?
A: 1.8

Q: What about the “Serum PFAS level, 25 percentile” value [1, 7] of the same compound?
A: 4.4

Q: And the “Serum PFAS level, 75 percentile” value [1, 7]?
A: 9.9

Q: And the “Serum PFAS level, Max” value [1, 7]?
A: 13

Q: What about the “Serum PFAS level, Median” value [1, 7] of the same compound?
A: 6.2

Q: And the “Serum PFAS level, Min” value [1, 7]?
A: 1.9

Q: What about the “Serum level in the first samples, median (range)” value ([1]; all 26 airport employees) of the same compound?
A: 6.9 (1.4–17) ng/mL

Q: What about the “PFAS in first serum sample, median (range)” value ([1]; employees participated in first blood sampling and repeated blood and urine sampling, N=17) of the same compound?
A: 7.6 (3.6–17) ng/mL

Q: What about the “PFAS in first serum sample, median (range)” value ([1]; employees participated in first blood sampling only, N=9, 11-14 d after end of exposure) of the same compound?
A: 3.5 (1.4–11) ng/mL

Q: What about the “Serum level, median” value ([1]; exposed employees 5 months after exposure ceased) of the same compound?
A: 6.22 ng/mL

Q: What about the “Initial serum PFAS level, max” value ([1]; females (N=7)) of the same compound?
A: 15 ng/mL

Q: What about the “Initial serum PFAS level, median” value ([1]; females (N=7)) of the same compound?
A: 5.1 ng/mL

Q: And the “Initial serum PFAS level, min” value ([1]; females (N=7))?
A: 3.5 ng/mL

Q: And the “Relative composition of PFAS in serum, molar concentration basis” value [1, 8]?
A: 7.3%

Q: What about the “Relative composition of PFAS in serum, weight basis” value [1, 8] of the same compound?
A: 6.3%

Q: What about the “Initial serum PFAS level, Max” value ([1]; males (N=19)) of the same compound?
A: 17 ng/mL

Q: And the “Initial serum PFAS level, Min” value ([1]; males (N=19))?
A: 1.4 ng/mL

Q: And the “Initial serum PFAS level, median” value ([1]; males (N=19))?
A: 7.2 ng/mL

Q: And the “Serum concentration, molar basis” value [1, 9]?
A: 0.020

Q: And the “Serum concentration, weight basis” value [1, 9]?
A: 6.9

Q: What about the “Serum level, median (range)” value [1, 10] of the same compound?
A: 6.5 (1.8–14) ng/mL

Q: What about the “Specific gravity adjusted urinary level, 25 percentile” value [2, 4] of the same compound?
A: 0.06 ng/mL

Q: And the “Specific gravity adjusted urinary level, 75 percentile” value [2, 4]?
A: 0.08 ng/mL

Q: What about the “Specific gravity adjusted urinary level, Max” value [2, 4] of the same compound?
A: 0.11 ng/mL

Q: And the “Specific gravity adjusted urinary level, Median” value [2, 4]?
A: 0.07 ng/mL

Q: What about the “Specific gravity adjusted urinary level, Min” value [2, 4] of the same compound?
A: 0.04 ng/mL

Q: And the “Specific gravity adjusted urinary level, 25 percentile” value [2, 11]?
A: 0.05 ng/mL

Q: And the “Specific gravity adjusted urinary level, 75 percentile” value [2, 11]?
A: 0.09 ng/mL

Q: And the “Specific gravity adjusted urinary level, Max” value [2, 11]?
A: 0.12 ng/mL

Q: And the “Specific gravity adjusted urinary level, Median” value [2, 11]?
A: 0.07 ng/mL

Q: What about the “Specific gravity adjusted urinary level, Min” value [2, 11] of the same compound?
A: 0.02 ng/mL

Q: And the “Specific gravity adjusted urinary level, 25 percentile” value [2, 12]?
A: 0.07 ng/mL

Q: And the “Specific gravity adjusted urinary level, 75 percentile” value [2, 12]?
A: 0.08 ng/mL

Q: What about the “Specific gravity adjusted urinary level, Max” value [2, 12] of the same compound?
A: 0.12 ng/mL

Q: And the “Specific gravity adjusted urinary level, Median” value [2, 12]?
A: 0.08 ng/mL

Q: What about the “Specific gravity adjusted urinary level, Min” value [2, 12] of the same compound?
A: 0.03 ng/mL

Q: And the “Specific gravity adjusted urinary level, 25 percentile” value [2, 13]?
A: 0.06 ng/mL

Q: What about the “Specific gravity adjusted urinary level, 75 percentile” value [2, 13] of the same compound?
A: 0.08 ng/mL

Q: And the “Specific gravity adjusted urinary level, Max” value [2, 13]?
A: 0.09 ng/mL

Q: And the “Specific gravity adjusted urinary level, Median” value [2, 13]?
A: 0.07 ng/mL

Q: And the “Specific gravity adjusted urinary level, Min” value [2, 13]?
A: 0.05 ng/mL

Q: And the “Specific gravity adjusted urine level, median (range)” value [2, 10]?
A: 0.072 (0.021–0.12) ng/mL

Q: And the Serum/water ratio (Serum/water ratio)?
A: 38.3
